Structures can show the parent of a compound that is named as a salt. Where two headings read alike, the source gives them in different places.
Target: T1, human A3AR (Homo sapiens, UniProt P0DMS8)
T1 construct: expressed in transfected cells
T1 sequence (P0DMS8 1-318): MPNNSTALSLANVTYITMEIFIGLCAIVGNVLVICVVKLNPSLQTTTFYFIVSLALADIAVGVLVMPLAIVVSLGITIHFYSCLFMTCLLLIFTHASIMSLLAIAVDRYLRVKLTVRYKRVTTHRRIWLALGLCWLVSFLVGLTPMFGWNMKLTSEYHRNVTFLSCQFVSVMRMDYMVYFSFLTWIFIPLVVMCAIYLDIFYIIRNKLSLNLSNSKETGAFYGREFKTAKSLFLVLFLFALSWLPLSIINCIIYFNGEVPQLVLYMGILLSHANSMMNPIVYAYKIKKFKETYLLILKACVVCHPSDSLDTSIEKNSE
Experiment: LOPAC library primary screen: single concentration (10 μM) inhibition of 25 nM CA200645 binding, PHERAstar FS

[1] = compounds tested at 10 µM, % of control wells (1% DMSO and 25 nM CA200645), whole live cells expressing the A3AR, mean ± SD, three experiments in duplicate

Compound: [N-]=[N+]=Nc1ccc(C(=O)CSC[C@H](NC(=O)CC[C@H](N)C(=O)O)C(=O)NCC(=O)O)cc1 [S-(p-Azidophenacyl)glutathione]
- % 25 nM CA200645 binding: 82.4 ± 8.6%

Compound: NC[C@H](O)c1ccc(O)c(O)c1.O=C(O)C(O)C(O)C(=O)O [L(-)-Norepinephrine bitartrate]
- % 25 nM CA200645 binding: 97.7 ± 6.2%

Compound: LY-310,762 hydrochloride
- % 25 nM CA200645 binding: 93.0 ± 7.5%

Compound: CCCn1c(=O)c2[nH]c(C3CCCC3)nc2n(CCCOC(=O)c2ccc(S(=O)(=O)F)cc2)c1=O [FSCPX, reference compound]
- % 25 nM CA200645 binding: 57.1 ± 9.1%
- % Total CA200645 binding (% of 25 nM CA200645 binding in the presence of 10 μM compound, LOPAC full screen, A3AR CHO cells): 57.5 ± 23.0%

Compound: CC(C)Oc1cccnc1N(C)C1CCN(Cc2ccccc2)CC1.O=C(O)/C=C\C(=O)O [U-101958 maleate]
- % 25 nM CA200645 binding: 102.1 ± 9.0%

Compound: C1CCc2nnnn2CC1 [Pentylenetetrazole]
- % 25 nM CA200645 binding: 95.4 ± 8.7%

Compound: Cl.c1ccc2c(c1)CCC[C@H]2Nc1nc2ccccc2[nH]1 [NS8593 hydrochloride]
- % 25 nM CA200645 binding: 91.2 ± 11.5%

Compound: CC(C)NC(C)Cc1ccc(I)cc1 (stereo not shown) [Iofetamine hydrochloride]
- % 25 nM CA200645 binding: 100.8 ± 7.1%

Compound: COc1ccc(/C=C/C(=O)Nc2ccccc2C(=O)O)cc1OC [Tranilast]
- % 25 nM CA200645 binding: 95.7 ± 1.4%

Compound: O=c1cc(O)cc(/C=C/c2ccc(O)c(O)c2)o1 [Hispidin]
- % 25 nM CA200645 binding: 77.8 ± 19.6%

Compound: N=C(N)SCCc1cnc[nH]1 [Imetit dihydrobromide]
- % 25 nM CA200645 binding: 99.9 ± 2.2%

Compound: O=C(O)[C@H]1CCCN[C@H]1C(=O)O (racemic) [(±)-cis-Piperidine-2,3-dicarboxylic acid]
- % 25 nM CA200645 binding: 99.4 ± 1.9%

Compound: Cc1ccc(C(=O)Nc2ccc(S(=O)(=O)[O-])c3cc(S(=O)(=O)[O-])cc(S(=O)(=O)[O-])c23)cc1NC(=O)c1cccc(NC(=O)Nc2cccc(C(=O)Nc3cc(C(=O)Nc4ccc(S(=O)(=O)[O-])c5cc(S(=O)(=O)[O-])cc(S(=O)(=O)[O-])c45)ccc3C)c2)c1.[Na+].[Na+].[Na+].[Na+].[Na+].[Na+] [Suramin sodium salt]
- % 25 nM CA200645 binding: 93.4 ± 9.0%

Compound: CCN1CCCC1CNC(=O)c1cc(S(N)(=O)=O)ccc1OC (racemic) [(±)-Sulpiride]
- % 25 nM CA200645 binding: 102.1 ± 6.1%

Compound: CCCCCCCCCCCCCCCC(=O)OC(CC(=O)O)C[N+](C)(C)C.[Cl-] (racemic) [Palmitoyl-DL-Carnitine chloride]
- % 25 nM CA200645 binding: 82.9 ± 21.8%

Compound: Cc1ccccc1N1C(=O)c2cc(S(N)(=O)=O)c(Cl)cc2NC1C (stereo not shown) [Metolazone]
- % 25 nM CA200645 binding: 90.5 ± 39.1%

Compound: Oc1ccccc1O [Pyrocatechol]
- % 25 nM CA200645 binding: 91.0 ± 7.4%

Compound: C[C@@]1(C2CCCC2)Cc2cc(OCC(=O)O)c(Cl)c(Cl)c2C1=O [R(+)-IAA-94]
- % 25 nM CA200645 binding: 95.5 ± 13.0%

Compound: C[C@]12CCC(=O)C=C1CC[C@@H]1[C@@H]2CC[C@@]2(C)[C@H]1CC[C@]2(O)C(=O)CO [Cortexolone]
- % 25 nM CA200645 binding [1]: 110.6 ± 19.2%

Compound: CN(C)CCC=C1c2ccccc2CCc2ccccc21 [Amitriptyline hydrochloride]
- % 25 nM CA200645 binding: 83.6 ± 19.8%

Compound: CCC(=O)c1ccc2c(c1)N(CCCN(C)C)c1ccccc1S2 [Propionylpromazine hydrochloride]
- % 25 nM CA200645 binding [1]: 101.0 ± 0.8%

Compound: Cn1c(=O)c2[nH]c(-c3ccccc3)nc2n(C)c1=O [1,3-Dimethyl-8-phenylxanthine]
- % 25 nM CA200645 binding: 91.8 ± 4.8%

Compound: OCCN1CCN(CCCN2c3ccccc3Sc3ccc(Cl)cc32)CC1 [Perphenazine]
- % 25 nM CA200645 binding: 88.8 ± 23.6%

Compound: CN1CC[C@@]2(C)c3cc(O)ccc3N(C)[C@@H]12.O=C(O)/C=C/C(=O)O [(-)-Eseroline fumarate]
- % 25 nM CA200645 binding: 105.8 ± 9.3%

Compound: CC[C@@H](CO)NC(=O)[C@@H]1C=C2c3cccc4[nH]cc(c34)C[C@H]2N(C)C1 [Methylergonovine maleate]
- % 25 nM CA200645 binding: 91.6 ± 8.0%

Compound: CN(C)CCCN1c2ccccc2Sc2ccccc21 [Promazine hydrochloride]
- % 25 nM CA200645 binding: 80.6 ± 8.4%

Compound: COc1ccccc1OCC(O)CN1CCN(CC(=O)Nc2c(C)cccc2C)CC1 (stereo not shown) [Ranolazine dihydrochloride]
- % 25 nM CA200645 binding: 102.3 ± 13.7%

Compound: CC(O)(CS(=O)(=O)c1ccc(F)cc1)C(=O)Nc1ccc(C#N)c(C(F)(F)F)c1 (stereo not shown) [Bicalutamide (CDX)]
- % 25 nM CA200645 binding: 96.9 ± 5.3%

Compound: NC[C@H](O)c1ccc(O)c(O)c1.O=C(O)C(O)C(O)C(=O)O (racemic) [(±)-Norepinephrine (+)bitartrate]
- % 25 nM CA200645 binding: 87.1 ± 8.1%

Compound: C=C/C(C)=C/[C@@]1(C)SC(=O)C(C)=C1O [Thiolactomycin]
- % 25 nM CA200645 binding (% of control wells (1% DMSO and 25 nM CA200645), compounds at 10 µM, whole live cells expressing the A3AR, mean ± SD, three experiments in duplicate): 98.5 ± 7.2%

Compound: Br.NCc1cc(O)no1 [Muscimol hydrobromide]
- % 25 nM CA200645 binding: 107.5 ± 2.4%

Compound: CC[C@]1(O)C[C@H]2CN(CCc3c([nH]c4ccccc34)[C@@](C(=O)OC)(c3cc4c(cc3OC)N(C=O)[C@H]3[C@@](O)(C(=O)OC)[C@H](OC(C)=O)[C@]5(CC)C=CCN6CC[C@]43[C@@H]65)C2)C1 [Vincristine sulfate]
- % 25 nM CA200645 binding: 106.1 ± 21.2%

Compound: OC[C@H]1NC[C@@H](O)[C@@H]1O [1,4-Dideoxy-1,4-imino-D-arabinitol]
- % 25 nM CA200645 binding: 90.0 ± 6.2%

Compound: CN(C)CCC(c1ccccc1)c1ccccn1 (stereo not shown) [Pheniramine maleate]
- % 25 nM CA200645 binding: 91.5 ± 14.9%

Compound: OC(CCN1CCCCC1)(c1ccccc1)C1CCCCC1 (stereo not shown) [Trihexyphenidyl hydrochloride]
- % 25 nM CA200645 binding: 99.4 ± 5.7%

Compound: N[C@@H]1CONC1=O (racemic) [DL-Cycloserine]
- % 25 nM CA200645 binding: 97.4 ± 8.2%

Compound: COc1ccc(CNC(=O)/C=C/c2ccc3[nH]cc(CCN(C)C)c3c2)cc1 [GR 46611]
- % 25 nM CA200645 binding: 100.9 ± 13.0%

Compound: CSc1ccc2c(c1)C(N1CCN(C)CC1)Cc1ccccc1S2 (stereo not shown) [Methiothepin mesylate]
- % 25 nM CA200645 binding [1]: 112.2 ± 9.4%

Compound: N[C@@H](Cc1c[nH]c2ccc(O)cc12)C(=O)O [5-Hydroxy-L-tryptophan]
- % 25 nM CA200645 binding: 97.7 ± 1.5%

Compound: OCCN1CCN(CCCN2c3ccccc3Sc3ccc(C(F)(F)F)cc32)CC1 [Fluphenazine dihydrochloride]
- % 25 nM CA200645 binding: 98.1 ± 12.0%

Compound: Cl.N[C@@H](Cc1cnc[nH]1)C(=O)O [L-Histidine hydrochloride]
- % 25 nM CA200645 binding: 100.4 ± 6.4%

Compound: COc1cc2c(CCNC(C)=O)c[nH]c2cc1Cl [6-Chloromelatonin]
- % 25 nM CA200645 binding: 92.8 ± 24.3%

Compound: C=C[C@@]1(C)CC(=O)[C@]2(O)[C@@]3(C)[C@@H](O)CCC(C)(C)[C@@H]3[C@H](O)[C@H](OC(C)=O)[C@@]2(C)O1 [Forskolin]
- % 25 nM CA200645 binding: 100.9 ± 7.2%

Compound: Picrotoxin
- % 25 nM CA200645 binding: 96.8 ± 4.1%

Compound: O=C(CCSCc1ccco1)NNC(=O)N1Cc2ccccc2Oc2ccc(Cl)cc21 [SC-51322]
- % 25 nM CA200645 binding: 86.9 ± 5.7%

Compound: CCCCN(CCCC)CC(O)c1cc(Cl)cc2c1-c1ccc(Cl)cc1/C2=C/c1ccc(Cl)cc1 (stereo not shown) [Lumefantrine]
- % 25 nM CA200645 binding [1]: 94.4 ± 10.9%

Compound: CCN1/C(=C/C(C)=O)Sc2ccc(OC)cc21 [TG003]
- % 25 nM CA200645 binding: 77.3 ± 17.0%

Compound: LY-367,265
- % 25 nM CA200645 binding: 64.8 ± 25.8%

Compound: O=[N+]([O-])c1ccc(CSc2ncnc3c2ncn3[C@@H]2O[C@H](CO)[C@@H](O)[C@H]2O)cc1 [S-(4-Nitrobenzyl)-6-thioinosine]
- % 25 nM CA200645 binding: 95.1 ± 33.3%

Compound: C[C@H](CS)C(=O)N1CCC[C@H]1C(=O)O [Captopril]
- % 25 nM CA200645 binding: 97.2 ± 6.3%

Compound: O=P1(N(CCCl)CCCl)NCCCO1 (stereo not shown) [Cyclophosphamide monohydrate]
- % 25 nM CA200645 binding: 79.2 ± 18.9%

— article PMC5733478, “A Non-imaging High Throughput Approach to Chemical Library Screening at the Unmodified Adenosine-A3 Receptor in Living Cells” (Frontiers in Pharmacology, 2017)
